Measured values from US12052991B2, “Substituted pyridinyloxybenzenes and salts thereof and use thereof as herbicidal agents” (Bayer Aktiengesellschaft, priority 2018, dated 2024).

Tests used:
Format in all cases: in vivo
[1] = tested on: harmful plants ABUTH, AMARE, ECHCG, LOLRI, MATIN, POAAN, SETVI, STEME, ALOMY, DIGSA, KCHSC and VERPE; assay: Herbicidal post-emergence action, summary of Tables B1-B12; conditions: application rate of 1280 or 320 g of active ingredient per hectare; summary in words
In short: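 Greenhouse weeds in sandy loam treated post-emergence at the one-leaf stage, 2–3 weeks after sowing, with WP or EC formulations sprayed with 0.5% additive at 600 L/ha water, 1280 or 320 g/ha. Damage rated visually after about 3 weeks versus untreated controls (0% = like control, 100% = dead).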

[2] = tested on: Abutilon theophrasti (ABUTH); assay: Herbicidal pre-emergence action, test C (Table C5); conditions: visual scoring after about 3 weeks, 100% = plants have died, 0% = like control plants
In short: (§1)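 Seeds are covered with sandy loam, and the formulated compound is applied to the soil surface before emergence at 1280 or 320 g/ha. Spray carries 0.5% additive at 600 L/ha. Damage is rated visually as percent versus untreated pots after roughly 3 weeks.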

[3] = tested on: Echinochloa crus-galli (ECHCG); assay: Herbicidal post-emergence action (Table B1); conditions: rated visually after about 3 weeks, 100% = plants have died, 0% = like control plants
In short: (§2)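 Visual percent activity relative to untreated controls (100% = plants dead, 0% = like controls) was scored about 3 weeks after treatment. Plants had been sprayed at the one-leaf stage with formulated compound at 1280 or 320 g/ha in 600 L/ha water containing 0.5% additive.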

[4] = tested on: Amaranthus retroflexus (AMARE); assay: Herbicidal pre-emergence action, test C (Table C6); conditions: visual scoring after about 3 weeks, 100% = plants have died, 0% = like control plants
In short: as §1

[5] = tested on: Abutilon theophrasti (ABUTH); assay: Herbicidal post-emergence action (Table B5); conditions: rated visually after about 3 weeks, 100% = plants have died, 0% = like control plants
In short: as §2

[6] = tested on: harmful plants ABUTH, AMARE, ECHCG, LOLRI, MATIN, POAAN, SETVI, STEME, ALOMY, DIGSA, KCHSC and VERPE; assay: Herbicidal pre-emergence action (test C), summary of Tables C1-C12; conditions: application rate of 1280 or 320 g of active ingredient per hectare; summary in words
In short: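 Pre-emergence pot test in sandy loam: WP or EC formulations were sprayed onto the covering soil with 0.5% additive at 600 L/ha water, at 1280 or 320 g/ha. Plants were kept in the greenhouse, and activity was rated visually about 3 weeks later as % versus untreated controls (100% = dead).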

Lolium rigidum (LOLRI) [7] = assay: Herbicidal pre-emergence action, test C (Table C2); conditions: dosage 1280 g/ha; visual scoring after about 3 weeks; 100% = plants have died, 0% = like control plants
In short: as §1

Poa annua (POAAN) [8] = assay: Herbicidal pre-emergence action, test C (Table C3); conditions: visual scoring after about 3 weeks, 100% = plants have died, 0% = like control plants
In short: as §1

[9] = tested on: Matricaria inodora (MATIN); assay: Herbicidal pre-emergence action, test C (Table C7); conditions: visual scoring after about 3 weeks, 100% = plants have died, 0% = like control plants
In short: as §1

Poa annua (POAAN) [10] = assay: Herbicidal post-emergence action (Table B3); conditions: rated visually after about 3 weeks, 100% = plants have died, 0% = like control plants
In short: as §2

Lolium rigidum (LOLRI) [11] = assay: Herbicidal post-emergence action (Table B2); conditions: 1280 g/ha; rated visually after about 3 weeks; 100% = plants have died, 0% = like control plants
Protocol: (§3) Seeds of mono- and dicotyledonous weed plants were placed in plastic pots in sandy loam soil (doubly sown with in each case one species of mono- or dicotyledonous weed plants per pot), covered with soil and cultivated in a greenhouse under controlled growth conditions. 2 to 3 weeks after sowing, the test plants were treated at the one-leaf stage. The compounds of the invention, formulated in the form of wettable powders (WP) or as emulsion concentrates (EC), were applied onto the green parts of the plants as aqueous suspension or emulsion with addition of 0.5% additive at a water application rate of 600 liters per hectare (converted). After the test plants had been kept in the greenhouse under optimum growth conditions for about 3 weeks, the activity of the preparations was rated visually in comparison to untreated controls. For example, 100% activity=the plants have died, 0% activity=like control plants. Tables B1 to B12 below show the effects of selected compounds of the general formula (I) according to Table 1 on various harmful plants and an application rate corresponding to 1280 or 320 g/ha, which were obtained by the experimental procedure mentioned above.

Setaria viridis (SETVI) [12] = assay: Herbicidal post-emergence action (Table B4); conditions: rated visually after about 3 weeks, 100% = plants have died, 0% = like control plants
Protocol: as §3

Setaria viridis (SETVI) [13] = assay: Herbicidal pre-emergence action, test C (Table C4); conditions: visual scoring after about 3 weeks, 100% = plants have died, 0% = like control plants
In short: as §1

Stellaria media (STEME) [14] = assay: Herbicidal post-emergence action (Table B8); conditions: visual rating about 3 weeks after treatment, 100% = plants have died, 0% = like control plants
In short: as §2

[15] = tested on: Amaranthus retroflexus (AMARE); assay: Herbicidal post-emergence action (Table B6); conditions: visual rating about 3 weeks after treatment, 100% = plants have died, 0% = like control plants
In short: as §2

[16] = tested on: Echinochloa crus-galli (ECHCG); assay: Herbicidal pre-emergence action, test C (Table C1); conditions: visual scoring after about 3 weeks, 100% = plants have died, 0% = like control plants
In short: as §1

Stellaria media (STEME) [17] = assay: Herbicidal pre-emergence action, test C (Table C8); conditions: visual scoring after about 3 weeks, 100% = plants have died, 0% = like control plants
In short: as §1

Row | Structure (SMILES) | herbicidal activity against the harmful plants of Tables B1-B12 in post-emergence treatment [1] | Pre-emergence action against Abutilon theophrasti (ABUTH) ([2]; dosage 320 g/ha) [%] | Pre-emergence action against Abutilon theophrasti (ABUTH) ([2]; dosage 1280 g/ha) [%] | Post-emergence action against Echinochloa crus-galli (ECHCG) ([3]; 320 g/ha) [%] | Post-emergence action against Echinochloa crus-galli (ECHCG) ([3]; 1280 g/ha) [%] | Pre-emergence action against Amaranthus retroflexus (AMARE) ([4]; dosage 1280 g/ha) [%] | Post-emergence action against Abutilon theophrasti (ABUTH) ([5]; 320 g/ha) [%] | Post-emergence action against Abutilon theophrasti (ABUTH) ([5]; 1280 g/ha) [%] | herbicidal activity against the harmful plants of Tables C1-C12 in pre-emergence treatment [6] | Pre-emergence action against Lolium rigidum (LOLRI) (Lolium rigidum (LOLRI) [7]) [%] | Pre-emergence action against Poa annua (POAAN) (Poa annua (POAAN) [8]; dosage 320 g/ha) [%] | Pre-emergence action against Poa annua (POAAN) (Poa annua (POAAN) [8]; dosage 1280 g/ha) [%] | Pre-emergence action against Matricaria inodora (MATIN) ([9]; dosage 1280 g/ha) [%] | Post-emergence action against Poa annua (POAAN) (Poa annua (POAAN) [10]; 320 g/ha) [%] | Post-emergence action against Poa annua (POAAN) (Poa annua (POAAN) [10]; 1280 g/ha) [%] | Post-emergence action against Lolium rigidum (LOLRI) (Lolium rigidum (LOLRI) [11]) [%] | Post-emergence action against Setaria viridis (SETVI) (Setaria viridis (SETVI) [12]; 1280 g/ha) [%] | Pre-emergence action against Setaria viridis (SETVI) (Setaria viridis (SETVI) [13]; dosage 320 g/ha) [%] | Pre-emergence action against Setaria viridis (SETVI) (Setaria viridis (SETVI) [13]; dosage 1280 g/ha) [%] | Post-emergence action against Stellaria media (STEME) (Stellaria media (STEME) [14]; dosage 320 g/ha) [%] | further results
1 | Fc1cccc(Oc2ncc(Cl)cc2Cl)c1-c1cc(C(F)F)no1 [Example 1-21] | very good herbicidal activity | 90 | 90 | 100 | 100 | 100 | 100 | 100 | very good herbicidal activity | 100 | 100 | 100 | 90 | 100 | 100 | 100 | 100 | 100 | 100 | 100 | Pre-emergence action against Amaranthus retroflexus (AMARE) ([4]; dosage 320 g/ha): 100%; Post-emergence action against Setaria viridis (SETVI) (Setaria viridis (SETVI) [12]; 320 g/ha): 90%; Post-emergence action against Stellaria media (STEME) (Stellaria media (STEME) [14]; dosage 1280 g/ha): 100%; Post-emergence action against Amaranthus retroflexus (AMARE) ([15]; dosage 1280 g/ha): 90%
2 | Fc1cccnc1Oc1cccc(F)c1-c1cc(C(F)F)no1 [Example 1-23] | very good herbicidal activity | 100 | 100 | 100 | 100 | 100 | 100 | 100 | very good herbicidal activity | 100 | 90 | 100 | 100 | 100 | 100 | 100 | 90 | 100 | 100 | 100 | Pre-emergence action against Echinochloa crus-galli (ECHCG) ([16]; dosage 320 g/ha): 100%; Pre-emergence action against Echinochloa crus-galli (ECHCG) ([16]; dosage 1280 g/ha): 100%; Pre-emergence action against Matricaria inodora (MATIN) ([9]; dosage 320 g/ha): 90%; Pre-emergence action against Stellaria media (STEME) (Stellaria media (STEME) [17]; dosage 320 g/ha): 100%; Pre-emergence action against Stellaria media (STEME) (Stellaria media (STEME) [17]; dosage 1280 g/ha): 100%; Post-emergence action against Stellaria media (STEME) (Stellaria media (STEME) [14]; dosage 1280 g/ha): 100%; Post-emergence action against Amaranthus retroflexus (AMARE) ([15]; dosage 320 g/ha): 100%; Post-emergence action against Amaranthus retroflexus (AMARE) ([15]; dosage 1280 g/ha): 100%
